# Reference: patent US11130769B2 (Prelude Therapeutics Incorporated, priority 2018, dated 2021)
# Tests used:
# H929 cells = test: Cell viability assay (H929 10 FBS); assay type: cell-based; conditions: Homo sapiens, NCI-H929, 24 hours, read-out: H929_10FBS IC50
# How it was run: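 ATP-based luminescence (CellTiter-Glo or ATPlite 1 Step, 30-60 min at RT) gauged viability of H929 myeloma cells after 24 h compound treatment at 37 °C. Cells plated at 4000 per well in 10% FBS RPMI 1640 supplemented with pyruvate, HEPES and glucose.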
# MCL-1 = MCL-1 (Homo sapiens (Human), UniProt Q07820); test: Cell free Mcl-1:Bim affinity assay (fluorescence polarization competition); assay type: binding; conditions: 15 nM MCL-1, 5 nM FITC-Bim, 1 hour at room temperature; class symbols; read-out: BIM_Ki
# How it was run: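 Fluorescence polarization competition: 10-point 3-fold compound dilutions displaced 5 nM FITC-Bim from 15 nM MCL-1 over 1 h at room temperature. Ki was derived from the fitted IC50 using the Nikolovska-Coleska equation, with percent inhibition normalized to DMSO and positive controls.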
# Sequence of MCL-1 (Q07820 whole entry): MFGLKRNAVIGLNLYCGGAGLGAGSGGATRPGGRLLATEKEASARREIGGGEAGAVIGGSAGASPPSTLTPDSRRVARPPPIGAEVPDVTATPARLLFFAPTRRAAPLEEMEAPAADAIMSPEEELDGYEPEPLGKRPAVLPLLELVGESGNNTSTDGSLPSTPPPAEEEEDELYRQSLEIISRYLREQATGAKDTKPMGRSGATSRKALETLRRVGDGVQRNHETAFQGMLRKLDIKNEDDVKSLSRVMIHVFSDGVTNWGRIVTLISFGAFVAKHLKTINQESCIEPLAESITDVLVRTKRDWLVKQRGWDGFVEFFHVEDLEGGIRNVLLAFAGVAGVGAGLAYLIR
Structure (SMILES),IC50 (H929 cells) [µM],Ki (MCL-1) [µM]
"C[C@@H]1NC(=O)COC[C@@H]2CC[C@H]2CN2C[C@@]3(CCCc4cc(Cl)ccc43)COc3ccc(cc32)S(=O)(=O)NC1=O [Example 197, (3R,6R,12S,22S)-6′-Chloro-12-methyl-15,15-dioxo-spiro[8,20-dioxa-15-thia-1,11,14-triazatetracyclo[14.7.2.0˜3,6.0˜19,24]pentacosa-16,18,24-triene-22,1′-tetralin]-10,13-dione]",> 1,0.001 to 0.1
"CN1C/C=C/[C@H](OC(=O)N2CCOCC2)[C@@H]2CC[C@H]2CN2C[C@@]3(CCCc4cc(Cl)ccc43)COc3ccc(cc32)S(=O)(=O)NC(=O)C1(C)C [Example 199, [(3R,6R,7S,8E,22S)-6′-Chloro-11,12,12-trimethyl-13,15,15-trioxo-spiro[20-oxa-15-thia-1,11,14-triazatetracyclo[14.7.2.03,6.019,24]pentacosa-8,16,18,24-tetraene-22,1′-tetralin]-7-yl]morpholine-4-carboxylate]",< 0.5,< 0.001
"CNC(=O)O[C@H]1/C=C/CN(C)C(C)(C)C(=O)NS(=O)(=O)c2ccc3c(c2)N(C[C@@H]2CC[C@H]21)C[C@@]1(CCCc2cc(Cl)ccc21)CO3 [Example 203, [(3R,6R,7S,8E,22S)-6′-Chloro-11,12,12-trimethyl-13,15,15-trioxo-spiro[20-oxa-15-thia-1,11,14-triazatetracyclo[14.7.2.03,6.019,24]pentacosa-8,16,18,24-tetraene-22,1′-tetralin]-7-yl] N-methylcarbamate]",< 0.5,< 0.001
"CCNC(=O)O[C@H]1/C=C/CN(C)C(C)(C)C(=O)NS(=O)(=O)c2ccc3c(c2)N(C[C@@H]2CC[C@H]21)C[C@@]1(CCCc2cc(Cl)ccc21)CO3 [Example 204, [(3R,6R,7S,8E,22S)-6′-Chloro-11,12,12-trimethyl-13,15,15-trioxo-spiro[20-oxa-15-thia-1,11,14-triazatetracyclo[14.7.2.03,6.019,24]pentacosa-8,16,18,24-tetraene-22,1′-tetralin]-7-yl] N-ethylcarbamate]",< 0.5,< 0.001
"CN1C/C=C/[C@H](OC(=O)NCC2CC2)[C@@H]2CC[C@H]2CN2C[C@@]3(CCCc4cc(Cl)ccc43)COc3ccc(cc32)S(=O)(=O)NC(=O)C1(C)C [Example 205, [(3R,6R,7S,8E,22S)-6′-Chloro-11,12,12-trimethyl-13,15,15-trioxo-spiro[20-oxa-15-thia-1,11,14-triazatetracyclo[14.7.2.03,6.019,24]pentacosa-8,16,18,24-tetraene-22,1′-tetralin]-7-yl] N-(cyclopropylmethyl)carbamate]",< 0.5,0.001 to 0.1
"CC(C)NC(=O)O[C@H]1/C=C/CN(C)C(C)(C)C(=O)NS(=O)(=O)c2ccc3c(c2)N(C[C@@H]2CC[C@H]21)C[C@@]1(CCCc2cc(Cl)ccc21)CO3 [Example 207, [(3R,6R,7S,8E,22S)-6′-Chloro-11,12,12-trimethyl-13,15,15-trioxo-spiro[20-oxa-15-thia-1,11,14-triazatetracyclo[14.7.2.03,6.019,24]pentacosa-8,16,18,24-tetraene-22,1′-tetralin]-7-yl] N-isopropylcarbamate]",< 0.5,< 0.001
"CCCN1C/C=C/[C@H](OC(=O)N(C)C)[C@@H]2CC[C@H]2CN2C[C@@]3(CCCc4cc(Cl)ccc43)COc3ccc(cc32)S(=O)(=O)NC(=O)C1(C)C [Example 211, [(3R,6R,7S,8E,22S)-6′-Chloro-12,12-dimethyl-13,15,15-trioxo-11-propyl-spiro[20-oxa-15-thia-1,11,14-triazatetracyclo[14.7.2.03,6.019,24]pentacosa-8,16,18,24-tetraene-22,1′-tetralin]-7-yl] N,N-dimethylcarbamate]",< 0.5,< 0.001
"CN(C)CCN(C)C(=O)O[C@H]1/C=C/CN(C)C(C)(C)C(=O)NS(=O)(=O)c2ccc3c(c2)N(C[C@@H]2CC[C@H]21)C[C@@]1(CCCc2cc(Cl)ccc21)CO3 [Example 213, [(3R,6R,7S,8E,22S)-6′-Chloro-11,12,12-trimethyl-13,15,15-trioxo-spiro[20-oxa-15-thia-1,11,14-triazatetracyclo[14.7.2.03,6.019,24]pentacosa-8,16,18,24-tetraene-22,1′-tetralin]-7-yl] N-[2-(dimethylamino)ethyl]-N-methyl-carbamate]",< 0.5,< 0.001
"CN(C)C1CN(C(=O)O[C@H]2/C=C/CN(C)C(C)(C)C(=O)NS(=O)(=O)c3ccc4c(c3)N(C[C@@H]3CC[C@H]32)C[C@@]2(CCCc3cc(Cl)ccc32)CO4)C1 [Example 214, [(3R,6R,7S,8E,22S)-6′-Chloro-11,12,12-trimethyl-13,15,15-trioxo-spiro[20-oxa-15-thia-1,11,14-triazatetracyclo[14.7.2.03,6.019,24]pentacosa-8,16,18,24-tetraene-22,1′-tetralin]-7-yl] 3-(dimethylamino)azetidine-1-carboxylate]",< 0.5,< 0.001

# Next, values leading:
IC50 (H929 cells) [µM],Ki (MCL-1) [µM],Structure (SMILES)
< 0.5,< 0.001,"CO[C@H]1CCN(C(=O)O[C@H]2/C=C/COC(C)(C)C(=O)NS(=O)(=O)c3ccc4c(c3)N(C[C@@H]3CC[C@H]32)C[C@@]2(CCCc3cc(Cl)ccc32)CO4)C1 [Example 195, [(3R,6R,7S,8E,22S)-6′-Chloro-12,12-dimethyl-13,15,15-trioxo-spiro[11,20-dioxa-15-thia-1,14-diazatetracyclo[14.7.2.03,6.019,24]pentacosa-8,16,18,24-tetraene-22,1′-tetralin]-7-yl] (3S)-3-methoxypyrrolidine-1-carboxylate]"
< 0.5,< 0.001,"CN(C)C(=O)O[C@@H]1/C=C/CNC(C)(C)C(=O)NS(=O)(=O)c2ccc3c(c2)N(C[C@@H]2CC[C@H]21)C[C@@]1(CCCc2cc(Cl)ccc21)CO3 [Example 198, [(3R,6R,7R,8E,22S)-6′-Chloro-12,12-dimethyl-13,15,15-trioxo-spiro[20-oxa-15-thia-1,11,14-triazatetracyclo[14.7.2.0˜3,6.0˜19,24]pentacosa-8,16,18,24-tetraene-22,1′-tetralin]-7-yl] N,N-dimethylcarbamate]"
< 0.5,0.001 to 0.1,"CN(C)C(=O)O[C@@H]1/C=C/CN(C)C(C)(C)C(=O)NS(=O)(=O)c2ccc3c(c2)N(C[C@@H]2CC[C@H]21)C[C@@]1(CCCc2cc(Cl)ccc21)CO3 [Example 200, [(3R,6R,7R,8E,22S)-6′-Chloro-11,12,12-trimethyl-13,15,15-trioxo-spiro[20-oxa-15-thia-1,11,14-triazatetracyclo[14.7.2.03,6.019,24]pentacosa-8,16,18,24-tetraene-22,1′-tetralin]-7-yl] N,N-dimethylcarbamate]"
< 0.5,< 0.001,"CN1C/C=C/[C@H](OC(=O)NC2CCC2)[C@@H]2CC[C@H]2CN2C[C@@]3(CCCc4cc(Cl)ccc43)COc3ccc(cc32)S(=O)(=O)NC(=O)C1(C)C [Example 201, [(3R,6R,7S,8E,22S)-6′-Chloro-11,12,12-trimethyl-13,15,15-trioxo-spiro[20-oxa-15-thia-1,11,14-triazatetracyclo[14.7.2.03,6.019,24]pentacosa-8,16,18,24-tetraene-22,1′-tetralin]-7-yl] N-cyclobutylcarbamate]"
< 0.5,< 0.001,"CN(C(=O)O[C@H]1/C=C/COC(C)(C)C(=O)NS(=O)(=O)c2ccc3c(c2)N(C[C@@H]2CC[C@H]21)C[C@@]1(CCCc2cc(Cl)ccc21)CO3)[C@H]1CCOC1 [Example 202, [(3R,6R,7S,8E,22S)-6′-Chloro-12,12-dimethyl-13,15,15-trioxo-spiro[11,20-dioxa-15-thia-1,14-diazatetracyclo[14.7.2.03,6.019,24]pentacosa-8,16,18,24-tetraene-22,1′-tetralin]-7-yl] N-methyl-N-[(3S)-tetrahydrofuran-3-yl]carbamate]"
< 0.5,< 0.001,"CN(C)C(=O)O[C@H]1/C=C/CNC(C)(C)C(=O)NS(=O)(=O)c2ccc3c(c2)N(C[C@@H]2CC[C@H]21)C[C@@]1(CCCc2cc(Cl)ccc21)CO3 [Example 209, [(3R,6R,7S,8E,22S)-6′-Chloro-12,12-dimethyl-13,15,15-trioxo-spiro[20-oxa-15-thia-1,11,14-triazatetracyclo[14.7.2.03,6.019,24]pentacosa-8,16,18,24-tetraene-22,1′-tetralin]-7-yl] N,N-dimethylcarbamate]"
< 0.5,< 0.001,"CCN1C/C=C/[C@H](OC(=O)N(C)C)[C@@H]2CC[C@H]2CN2C[C@@]3(CCCc4cc(Cl)ccc43)COc3ccc(cc32)S(=O)(=O)NC(=O)C1(C)C [Example 210, [(3R,6R,7S,8E,22S)-6′-Chloro-11-ethyl-12,12-dimethyl-13,15,15-trioxo-spiro[20-oxa-15-thia-1,11,14-triazatetracyclo[14.7.2.03,6.019,24]pentacosa-8,16,18,24-tetraene-22,1′-tetralin]-7-yl] N,N-dimethylcarbamate]"
< 0.5,< 0.001,"CN1C/C=C/[C@H](OC(=O)N[C@H]2CCOC2)[C@@H]2CC[C@H]2CN2C[C@@]3(CCCc4cc(Cl)ccc43)COc3ccc(cc32)S(=O)(=O)NC(=O)C1(C)C [Example 212, [(3R,6R,7S,8E,22S)-6′-Chloro-11,12,12-trimethyl-13,15,15-trioxo-spiro[20-oxa-15-thia-1,11,14-triazatetracyclo[14.7.2.03,6.019,24]pentacosa-8,16,18,24-tetraene-22,1′-tetralin]-7-yl] N-[(3S)-tetrahydrofuran-3-yl]carbamate]"
